We go through three compounds from patent US20190083436A1, “METHODS OF DIAGNOSING CANCER” (AGENCY FOR SCIENCE, TECHNOLOGY AND RESEARCH, priority 2016, published 2019).

SMILES strings stand for the structures.

In experiment [1] the test system is HCC cell lines. The experiment in a line: Real-time cell proliferation (xCELLigence) of liver cancer cell lines treated with compounds. The experiment is classed as cell-based.
Description: Cell Culture. Cell lines were obtained [Huh7 from Japanese Collection of Research Bioresources; Hep3B, SNU182, SNU387, SNU398, and SNU449 from ATCC; and Morris Hepatoma 3924a from German Cancer Research Center Tumor Collection] and not further verified. Only cell stocks that had been verified mycoplasma-negative within the prior 9 months were used. All cell lines were maintained in RPMI 1640 with 10% FBS and 1% Pen Strep (Gibco) and grown in a 37° C. humidified incubator with 5% CO2. Real-time cell growth measurements were taken on an xCELLigence RTCA SP (Acea) at 15-minute intervals. For compound treatment growth curves, cells were seeded in quadruplicate at 1,250, 2,500 or 5,000 cells per well and normalized 12 hours later (time 0 hours), immediately prior to changing half of the media to add compounds or vehicle. […] For immunoblots, cells were seeded in 10 cm dishes and allowed to grow for at least 24 hours. At approximately 80% confluence the media was changed to include indicated amounts of compound or vehicle (DMSO) and whole cell lysates were harvested 2 hours later. […] Results shown are one of at least three independent experiments.
In experiment [2] the test system is mTOR pathway. The experiment in a line: Immunoblots of mTOR pathway activity after 2 hours of compound treatment. The experiment is classed as cell-based. The following applies: HCC cell lines, 2 hours of treatment. Background: Immunoblotting shows a protein as a band on a membrane.
Description: All cell lines were maintained in RPMI 1640 with 10% FBS and 1% Pen Strep (Gibco) and grown in a 37° C. humidified incubator with 5% CO2. […] For immunoblots, cells were seeded in 10 cm dishes and allowed to grow for at least 24 hours. At approximately 80% confluence the media was changed to include indicated amounts of compound or vehicle (DMSO) and whole cell lysates were harvested 2 hours later. […] For immunoblots, cells were seeded in 10 or 15 cm dishes, and were split or received media change every 3-4 days to maintain a doxycycline concentration of 250 μg/mL. After 10 days, cells were harvested as whole cell lysates, or as purified mitochondrial fractions using an isolation kit (Thermo Fisher). Results shown are one of at least three independent experiments. […] For immunoblots, cells were seeded into 10 cm or 15 cm dishes and harvested 5 days later as whole cell lysates or purified mitochondrial fractions, when the cells were approximately 80% confluent.
Antibodies were obtained from Cell Signaling [Cleaved Caspase 3 (9664), Cox IV (4844), p-Histone H2A.X (9718), S6 (2317), p-S6 (4858), S6K (9202), p-S6K (9234)], Santa Cruz [Bckdha (sc-67200), Bckdhb (sc160974), Gapdh (sc-32233)], Bethyl [p-Bckdha (A304-672A)], Sigma [Tubulin (T5168), Acads (HPA022271)], and Abcam [Acadsb (ab99951), Bckdk (ab125389 and ab151297), Ki67 (ab15580)]. […]
Experiment [3] has as its system DEN-induced liver tumors. The experiment in a line: DEN-injected mice fed BCAA-supplemented diets with Fenofibrate or BT2. The experiment is classed as in vivo. The following applies: 8 months after DEN injection; LFD+BCAA or HFD+BCAA with 0.05% Fenofibrate or 0.02% BT2. An excerpt: Analysis of mice 8 months after DEN injection, fed either a low fat diet (LFD, 10% kcal from fat) or high fat diet (HFD, 45% kcal from fat) with normal or high (+150%) levels of BCAAs. […] Hazard ratios (with 95% confidence intervals) based on BCAA intake, adjusted for age, sex, race, total kcal, usual dietary intake, diet change, physical activity, intentional weight loss, waist circumference, smoking, education, and prior diagnosis of cancer, diabetes and cardiovascular disease, additionally adjusted for % kcal from other macronutrients. […] Substitution analysis comparing change in risk when replacing BCAAs with carbohydrate or fat, with the same adjustments as HR2 except total kcal and % kcal from nonBCAA protein. Data are presented as hazard ratio (solid line) with 95% confidence interval (shaded area). […] Student's t-test, *P<0.05 vs. LFD, § P<0.05 vs HFD. †P<0.05 vs LFD+BCAA. ‡P<0.05 vs HFD+BCAA. […]
All animal studies were approved by the Institutional Animal Care and Use Committee at A*STAR. […] For rat DEN model, DEN was given to 10 week-old rats via drinking water containing 100 mg/L DEN for up to 4 months, and control rat livers from age-matched rats were analyzed. […] Livers were resected, measured by electronic calipers and snap frozen in liquid nitrogen. […] Body weights were measured weekly and prior to sacrifice lean and fat mass were measured by an EchoMRI Body Composition Analyzer. […]

Experiment [4] deals with mTOR. The experiment in a line: Immunofluorescence of mTOR/LAMP2 co-localization in Hep3B cells. The experiment is classed as cell-based. To be noted: treated 2 hours. An excerpt: Arrows highlight the co-localization of mTOR and lysosomal marker LAMP2. […] Student's t-test, *P<0.05, compared to respective controls.

Turning to `O=C(O)c1sc2cc(Cl)ccc2c1Cl` [BT2, 3,6-dichlorobenzo[b]thiophene-2-carboxylic acid], the “cell proliferation (real-time proliferation curves, divisions per day)” value in experiment [1] (panel of HCC cell lines, rates over 48-hour period) was “potent dose-dependent decrease in cell proliferation”. Besides, the “mTOR activity (immunoblots)” value in experiment [2] is listed as “broad loss of mTOR activity”. In experiment [3], the “tumor promoting effects of BCAA-supplemented diets (number of tumors ≥3 mm, size of largest tumor)” value is on record as “able to reverse the tumor promoting effects”. Also, the “mTOR subcellular localization (co-localization of mTOR and lysosomal marker LAMP2)” value in experiment [4] is on record as “no significant co-localization was observed”.
Take `CC(C)OC(=O)C(C)(C)Oc1ccc(C(=O)c2ccc(Cl)cc2)cc1` [Fenofibrate, propan-2-yl 2-[4-(4-chlorobenzoyl)phenoxy]-2-methylpropanoate]: the “tumor promoting effects of BCAA-supplemented diets (number of tumors ≥3 mm, size of largest tumor)” value in experiment [3] is on record as “able to reverse the tumor promoting effects”. Also, the “mTOR subcellular localization (co-localization of mTOR and lysosomal marker LAMP2)” value in experiment [4] is reported as “no significant co-localization was observed”.
With `CCC(=O)N1CCN(c2ccc(-n3c(=O)ccc4cnc5ccc(-c6cnc7ccccc7c6)cc5c43)cc2C(F)(F)F)CC1` [Torin 1], the “sensitivity of HCC cell lines to mTOR inhibitors” value in experiment [1] (all HCC cell lines examined, proliferation and mTOR pathway immunoblots) is “at least partially sensitive”.
